Data from patent US4423053A, “Derivatives of 2-amino-5-(o-sulphamidophenyl)-1,3,4-thiadiazol as antiviral agents and a process for the preparation thereof” (Societa Italo-Britannica L. Manetti-H. Roberts & Co., priority 1981, dated 1983).
Read-outs that look alike come from different tables or passages of the source.

Columns and labels:
Polio 1 = assay type: cell-based
[1] = tested on: Herpes simplex virus type 2; test: Antiviral activity in vitro on HSV2 at different doses (Table A); assay type: cell-based
Procedure: (§1) The tests were carried out inoculating virus of various kinds on living cells from different sources, forming the respective culture in tissue culture flasks, according to the method well known to those skilled in the art. The virus forms a plurality growing seats on the bottom of the tissue culture flasks, depending on the virus concentration and the test conditions, said seats being easily identifiable with the naked eye. In such a way it is possible to establish the controls. At the same time in the tissue culture flasks wherein the compound of the invention had been introduced, at various concentrations, an inhibition is observed, as shown by a number of growing seats lower than that of the controls. Said inhibition was calculated in percent as referred in the following tables. Tests have been effected by using virus Herpes simplex, type 2 (HSV2), and virus Coxackie B, type 4 (COXB4).

[2] = tested on: virus Coxackie B, type 4 (COXB4); test: Antiviral activity in vitro on Coxackie B type 4 at different doses (Table B); assay type: cell-based
Procedure: as §1

[3] = tested on: Herpes simplex virus type 2; test: Activity in vitro on HSV2 for different times of administration after infection (Table C); assay type: cell-based
Procedure: as §1, with “In order to ascertain the activity of compound G-413 "in vitro" at a dose of 10 μg on Herpes simplex” for “Tests have been effected by using”, “virus” for “virus Herpes simplex,”, “for different times of administration, a test was effected introducing the compound into the cells after the” for “(HSV2), and”, “infection.” for “Coxackie B, type 4 (COXB4).”

ECHO 2 = test: Inhibition of virion production, ECHO 2 on HEp-2 cells (Table E); assay type: cell-based; details: ECHO 2 10^-6; 10^-7; 10^-8, HEp-2
Procedure: (§2) The activity of the compound G-413 was assessed by the test of inhibition of virion production.
(§3) The test was effected with various types of virus, on HEp-2 cells.

Coxsackie B4 = test: Inhibition of virion production, Coxsackie B4 on HEp-2 cells (Table F); assay type: cell-based
Procedure: as §2, §3

HSV2 [4] = test: Inhibition of virion production, HSV2 on HEp-2 cells (Table G); assay type: cell-based, Herpes simplex virus type 2
Adeno 17 = test: Inhibition of virion production, Adeno 17 on HEp-2 cells (Table H); assay type: cell-based
Procedure: as §2, §3

HSV2 [5] = test: Activity on kidney primary cells of rabbit with respect to HSV2 (Table I)
HSV2 [6] = test: Activity on kidney secondary cells of rabbit YRK with respect to HSV2 (Table J)
[7] = Table D, Polio 1 10^-6, HEp-2, 20 μg per "Falcon"
[8] = Table D, Polio 1 10^-7, HEp-2, 20 μg per "Falcon"
[9] = Table D, Polio 1 10^-8, HEp-2, 20 μg per "Falcon"

SMILES: CNc1nnc(-c2ccccc2S(N)(=O)=O)s1 [G-444]
- inhibition of virion production (Polio 1; Table K, Polio 1 10^-6, HEp-2): 64,8%
- virion production (Polio 1; Table K, Polio 1 10^-6, HEp-2): 113 PFU
- inhibition of virion production (Polio 1; Table K, Polio 1 10^-7, HEp-2): 65,7%
- virion production (Polio 1; Table K, Polio 1 10^-7, HEp-2): 87 PFU
- inhibition of virion production (Polio 1; Table K, Polio 1 10^-8, HEp-2): 26,6%
- virion production (Polio 1; Table K, Polio 1 10^-8, HEp-2): 83 PFU

SMILES: Nc1nnc(-c2ccccc2S(N)(=O)=O)s1 [G-413]
- inhibition ([1]; HSV2 10^-3, 2,5 μg): 66,7%
- virus growth (HSV2 with G-413) ([1]; HSV2 10^-3, 2,5 μg): 3,5 PFU/ml
- inhibition ([1]; HSV2 10^-3, 5,0 μg): 66,7%
- virus growth (HSV2 with G-413) ([1]; HSV2 10^-3, 5,0 μg): 3,5 PFU/ml
- inhibition ([1]; HSV2 10^-3, 10,0 μg): 81,0%
- virus growth (HSV2 with G-413) ([1]; HSV2 10^-3, 10,0 μg): 2,0 PFU/ml
- inhibition ([1]; HSV2 10^-3, 20,0 μg): 71,5%
- virus growth (HSV2 with G-413) ([1]; HSV2 10^-3, 20,0 μg): 3,0 PFU/ml
- inhibition ([1]; HSV2 10^-3, 30,0 μg): 52,4%
- virus growth (HSV2 with G-413) ([1]; HSV2 10^-3, 30,0 μg): 5,0 PFU/ml
- inhibition ([1]; HSV2 10^-3, 40,0 μg): 52,4%
- virus growth (HSV2 with G-413) ([1]; HSV2 10^-3, 40,0 μg): 5,0 PFU/ml
- percent inhibition (in words) ([1]; HSV2, dose of 10 μg): very high percent inhibition
- inhibition ([2]; COXB4 10^-6, 2,5 μg): 28,8%
- virus growth (COXB4 with G-413) ([2]; COXB4 10^-6, 2,5 μg): 23,5 PFU/ml
- inhibition ([2]; COXB4 10^-6, 5,0 μg): 89,9%
- virus growth (COXB4 with G-413) ([2]; COXB4 10^-6, 5,0 μg): 3,0 PFU/ml
- inhibition ([2]; COXB4 10^-6, 10,0 μg): 81,9%
- virus growth (COXB4 with G-413) ([2]; COXB4 10^-6, 10,0 μg): 6,5 PFU/ml
- inhibition ([2]; COXB4 10^-6, 20,0 μg): 80,4%
- virus growth (COXB4 with G-413) ([2]; COXB4 10^-6, 20,0 μg): 6,5 PFU/ml
- percent inhibition (in words) ([2]; COXB4, dose of 5 μg): very high percent inhibition
- inhibition ([3]; HSV2 10^-2 + 10 μg, no delay): 62,5%
- virus growth (HSV2 with G-413) ([3]; HSV2 10^-2 + 10 μg, no delay): 7,5 PFU/ml
- inhibition ([3]; HSV2 10^-2, 1 h later + 10 μg): 45,0%
- virus growth (HSV2 with G-413) ([3]; HSV2 10^-2, 1 h later + 10 μg): 11,0 PFU/ml
- inhibition ([3]; HSV2 10^-2, 2 h later + 10 μg): 60,0%
- virus growth (HSV2 with G-413) ([3]; HSV2 10^-2, 2 h later + 10 μg): 8,0 PFU/ml
- inhibition ([3]; HSV2 10^-2, 4 h later + 10 μg): 77,0%
- virus growth (HSV2 with G-413) ([3]; HSV2 10^-2, 4 h later + 10 μg): 4,5 PFU/ml
- inhibition ([3]; HSV2 10^-2, 8 h later + 10 μg): 85,0%
- virus growth (HSV2 with G-413) ([3]; HSV2 10^-2, 8 h later + 10 μg): 3,0 PFU/ml
- inhibition ([3]; HSV2 10^-2, 20 h later + 10 μg): 42,5%
- virus growth (HSV2 with G-413) ([3]; HSV2 10^-2, 20 h later + 10 μg): 11,5 PFU/ml
- inhibition of virion production (Polio 1; [7]): 91,9%
- virion production (Polio 1; [7]): 29 PFU
- inhibition of virion production (Polio 1; [8]): 98,2%
- virion production (Polio 1; [8]): 5 PFU
- inhibition of virion production (Polio 1; [9]): 97,7%
- virion production (Polio 1; [9]): 4 PFU
- inhibition of virion production (ECHO 2): 100%
- inhibition of virion production (Coxsackie B4; COX B4 10^-4, HEp-2): 72,0%
- virion production (Coxsackie B4; COX B4 10^-4, HEp-2): 14 PFU
- inhibition of virion production (Coxsackie B4; COX B4 10^-5, HEp-2): 83,7%
- virion production (Coxsackie B4; COX B4 10^-5, HEp-2): 7 PFU
- inhibition of virion production (Coxsackie B4; COX B4 10^-6, HEp-2): 85,0%
- virion production (Coxsackie B4; COX B4 10^-6, HEp-2): 6 PFU
- inhibition of virion production (HSV2 [4]; HSV2 10^-1, HEp-2): 75,2%
- virion production (HSV2 [4]; HSV2 10^-1, HEp-2): 8 PFU
- inhibition of virion production (HSV2 [4]; HSV2 10^-2, HEp-2): 75,0%
- virion production (HSV2 [4]; HSV2 10^-2, HEp-2): 5 PFU
- inhibition of virion production (HSV2 [4]; HSV2 10^-3, HEp-2): 62,5%
- virion production (HSV2 [4]; HSV2 10^-3, HEp-2): 3 PFU
- inhibition of virion production (Adeno 17; Adeno 17 10^-4, HEp-2): 65,0%
- virion production (Adeno 17; Adeno 17 10^-4, HEp-2): 35 PFU
- inhibition of virion production (Adeno 17; Adeno 17 10^-5, HEp-2): 67,5%
- virion production (Adeno 17; Adeno 17 10^-5, HEp-2): 27 PFU
- inhibition of virion production (Adeno 17; Adeno 17 10^-6, HEp-2): 63,4%
- virion production (Adeno 17; Adeno 17 10^-6, HEp-2): 22 PFU
- inhibition (HSV2 [5]; HSV2 10^-1, 10 μg): 38,1%
- virion production (HSV2 [5]; HSV2 10^-1, 10 μg): 13 PFU
- inhibition (HSV2 [5]; HSV2 10^-1, 50 μg): 71,5%
- virion production (HSV2 [5]; HSV2 10^-1, 50 μg): 6 PFU
- inhibition (HSV2 [5]; HSV2 10^-2, 10 μg): 23,0%
- virion production (HSV2 [5]; HSV2 10^-2, 10 μg): 7 PFU
- inhibition (HSV2 [5]; HSV2 10^-2, 50 μg): 77,0%
- virion production (HSV2 [5]; HSV2 10^-2, 50 μg): 3 PFU
- inhibition (HSV2 [5]; HSV2 10^-3, 10 μg): 50,0%
- virion production (HSV2 [5]; HSV2 10^-3, 10 μg): 2 PFU
- inhibition (HSV2 [5]; HSV2 10^-3, 50 μg): 75,0%
- virion production (HSV2 [5]; HSV2 10^-3, 50 μg): 1 PFU
- inhibition (HSV2 [6]; HSV2 10^-2, 5 μg): 10%
- virion production (HSV2 [6]; HSV2 10^-2, 5 μg): 9 PFU
- inhibition (HSV2 [6]; HSV2 10^-2, 10 μg): 30%
- virion production (HSV2 [6]; HSV2 10^-2, 10 μg): 7 PFU
- inhibition (HSV2 [6]; HSV2 10^-2, 25 μg): 40%
- virion production (HSV2 [6]; HSV2 10^-2, 25 μg): 6 PFU
- inhibition (HSV2 [6]; HSV2 10^-2, 50 μg): 70%
- virion production (HSV2 [6]; HSV2 10^-2, 50 μg): 3 PFU
- inhibition (HSV2 [6]; HSV2 10^-2, 100 μg): 70%
- virion production (HSV2 [6]; HSV2 10^-2, 100 μg): 3 PFU

SMILES: C=CCNc1nnc(-c2ccccc2S(N)(=O)=O)s1 [G-445]
- inhibition of virion production (Polio 1; Table K, Polio 1 10^-6, HEp-2): 73,6%
- virion production (Polio 1; Table K, Polio 1 10^-6, HEp-2): 85 PFU
- inhibition of virion production (Polio 1; Table K, Polio 1 10^-7, HEp-2): 73,2%
- virion production (Polio 1; Table K, Polio 1 10^-7, HEp-2): 68 PFU
- inhibition of virion production (Polio 1; Table K, Polio 1 10^-8, HEp-2): 44,3%
- virion production (Polio 1; Table K, Polio 1 10^-8, HEp-2): 63 PFU
